Assay results: patent US8158168B2, “Anti-gastritis and anti-ulcer agent containing Momordicae semen extract and momordica saponin I isolated from the same” (SK Chemicals Co., Ltd., priority 2005, dated 2012)

Legend:
[1] = tested on: secretion of gastric acid; experiment: Gastric acid secretion inhibition test in rats (Example 6); assay type: in vivo, Sprague-Dawley rats; settings: 1 hour later, gastric juice diluted 10 times with distilled water
Experimental: Momordica saponin I was orally administered to Sprague-Dawley rats and the acidity in the stomach was measured in order to evaluate the effect of momordica saponin I on the secretion of gastric acid. The momordica saponin I isolated in Preparative Example 4 was dissolved in 0.5% aqueous carboxymethyl cellulose solution to concentrations of 0.5, 1.5 and 4.5 mg/mL. 7-week-old specific pathogen free (SPF) male Sprague-Dawley rats were purchased from Charles River. After 1 week of adaptation, healthy rats with a weight of 220-225 g were selected for the test. Two rats per each group were fasted for 18 hours with drinking water freely available and momordica saponin I were administered at dosages of 5, 15 and 45 mg/kg. 1 hour later, the rats were anesthetized with ether. 0.5 mL of the gastric juice taken from the stomach was diluted 10 times with distilled water to obtain a 5 mL sample. The pH of the diluted gastric juice was measured with a pH meter.

[2] = tested on: damage of gastric mucosa induced by alcohol; experiment: Protective effect against stomach damage induced by alcohol (momordica saponin I, Example 2); assay type: in vivo, Sprague-Dawley rats; settings: rat, momordica saponin I 20 mg/kg, Mucosta 100 mg/kg, 30 minutes before 1.5 mL 100% ethanol oral, observed 3 hours later; for gastric mucosa damage index ± standard deviation: Bleeding / gastric mucosa damage index ± standard deviation: Edema / gastric mucosa damage index ± standard deviation: Erosion / gastric mucosa damage index ± standard deviation: Flare / gastric mucosa damage index ± standard deviation: Hyperemia: points 0 to 3
Experimental: A rat model test was performed using 100% ethanol as stomach damage inducing factor to evaluate the protective effect of momordica saponin I for gastric mucosa. The momordica saponin I isolated in Preparative Example 5 was dissolved in 0.5% aqueous carboxymethyl cellulose solution to 2 mg/mL and was used as a test drug. Mucosta (rebamipide, Korea Otsuka Pharmaceuticals) dissolved in 0.5% aqueous carboxymethyl cellulose solution to 10 mg/mL was used as control drug.
(§1) Seven-week-old specific pathogen free (SPF) male Sprague-Dawley rats were purchased from Charles River. After 1 week of adaptation, healthy rats with a weight of 220-225 g were selected for the test. Five rats per each group were fasted for 18 hours with drinking water freely available. Momordica saponin I were administered at a dosage of 20 mg/kg and the control drug Mucosta were administered at a dosage of 100 mg/kg. After 30 minutes, 1.5 mL of 100% ethanol was orally administered. 3 hours later, the rats were anesthetized with ether and the stomach was taken out in order to evaluate the drug's effect of preventing the stomach damage. […] The damage of the stomach was classified into flare, congestion, hemorrhage, inflammation and edema. The severity of the damage was evaluated with points ranging from 0 to 3 (the higher the point, the severer the damage.).

[3] = tested on: stomach damage induced by diclofenac; experiment: Protective effect of momordica saponin I against stomach damage induced by diclofenac (Example 5); assay type: in vivo, Sprague-Dawley rats; settings: rat, diclofenac 40 mg/kg oral and at the same time momordica saponin I 20 mg/kg or Mucosta 100 mg/kg oral, observed 4 hours later; for gastric mucosa damage index ± standard deviation: Bleeding / gastric mucosa damage index ± standard deviation: Edema / gastric mucosa damage index ± standard deviation: Flare / gastric mucosa damage index ± standard deviation: Hyperemia: points 0 to 3
Experimental: Diclofenac and the test drug were administered simultaneously and the damage of gastric mucosa was observed 4 hours later. Diclofenac was dissolved in 0.5% aqueous carboxymethyl cellulose solution to […] and the test drug was prepared as in Example 2.
(§2) Seven-week-old specific pathogen free (SPF) male Sprague-Dawley rats were purchased from Charles River. After 1 week of adaptation, healthy rats with a weight of 220-225 g were selected for the test. Five rats per each group were fasted for 18 hours with drinking water freely available and diclofenac was orally administered at a dosage of 40 mg/kg and, at the same time, the test drug, or momordica saponin I, was orally administered at a dosage of 20 mg/kg and the control drug Mucosta was orally administered at a dosage of 100 mg/kg. 4 hours later, the rats were anesthetized with ether and the stomach was taken out in order to evaluate the drug's effect of treating gastritis. […] The damage of the stomach was classified into flare, congestion, hemorrhage, inflammation and edema. The severity of the damage was evaluated with points ranging from 0 to 3 (The higher the point, the severer the damage).

[4] = tested on: stomach damage induced by diclofenac; experiment: as above; assay type: in vivo, Sprague-Dawley rats; settings: rat, diclofenac 40 mg/kg oral and at the same time momordica saponin I 20 mg/kg or Mucosta 100 mg/kg oral; observed 4 hours later; points 0 to 3
[5] = tested on: Sprague-Dawley rats; experiment: Acute toxicity test for oral administration of momordica saponin I in rats (Example 8); assay type: in vivo; settings: rat
Experimental: Acute toxicity test was performed as follows using 6-week-old specific pathogen free (SPF) Sprague-Dawley rats
To two rats per each group, the momordica saponin I isolated in Preparative Example 5 was orally administered once at a dosage of 400 mg/kg. Survival, clinical manifestations and body weight change were observed and hematological and serum biochemical analysis was performed. Autopsy was performed to observe abnormalities in abdominal and thoracic organs.

[6] = tested on: stomach damage induced by diclofenac; experiment: Healing effect on stomach damage induced by diclofenac (Example 3); assay type: in vivo, Sprague-Dawley rats; settings: rat, diclofenac 40 mg/kg oral, drugs 100 mg/kg 6 hours after, observed 18 hours later
Experimental: A rat model test was performed using diclofenac, a representative non-steroidal anti-inflammatory drug (NSAID), as stomach damage inducing factor to evaluate the effect of the Momordicae semen extract of Example 1 for treating gastritis. The Momordicae semen extract was dissolved in 0.5% aqueous carboxymethyl cellulose solution to 10 mg/mL and was used as a test drug. Stillen (artemisia extract, Dong-A Pharmaceutical) and Mucosta (rebamipide, Korea Otsuka Pharmaceuticals) dissolved in 0.5% aqueous carboxymethyl cellulose solution to 10 mg/mL were used as control drugs.
as §2, with “40 mg/kg. After 6 hours of stomach damage inducement,” for “40 mg/kg and, at”, “the Momordicae semen extract” for “the same time, the test drug, or momordica saponin I, was orally administered at a dosage of 20 mg/kg”, “control drugs Stillen and” for “control drug”, “Mucosta were” for “Mucosta was orally”, “mg/kg. 18” for “mg/kg. 4”, “to 3.” for “to 3 (The higher the point, the severer the damage).”

[7] = tested on: stomach damage induced by diclofenac; experiment: Protective effect against stomach damage induced by diclofenac, simultaneous abdominal administration (Example 4); assay type: in vivo, Sprague-Dawley rats; settings: rat, diclofenac 40 mg/kg oral and at the same time drugs 100 mg/kg abdominally, observed 6 hours later
Experimental: Differently from Example 3, diclofenac and the test drug were administered simultaneously and the damage of gastric mucosa was observed 6 hours later. In order to prevent the direct interaction between diclofenac and the test drug, the test drug was administered abdominally. Similar to that in Example 3, diclofenac and the test drug were dissolved in 0.5% aqueous carboxymethyl cellulose solution to 10 mg/mL.
as §2, with “or the Momordicae semen extract,” for “or momordica saponin I, was orally administered at a dosage of 20 mg/kg”, “control drugs Stillen and” for “control drug”, “Mucosta were abdominally” for “Mucosta was orally”, “mg/kg. 6” for “mg/kg. 4”, “to 3.” for “to 3 (The higher the point, the severer the damage).”

[8] = tested on: damage of gastric mucosa induced by alcohol; experiment: Protective effect against stomach damage induced by alcohol (Momordicae semen extract, Example 1); assay type: in vivo, Sprague-Dawley rats; settings: rat, drugs 100 mg/kg 1 hour before 1.5 mL 100% ethanol oral, stomach observed 6 hours later
Experimental: A rat model test was performed using 100% ethanol as stomach damage inducing factor to evaluate the protective effect of the Momordicae semen extract for gastric mucosa. The Momordicae semen extract of Preparative Example 1 was dissolved in 0.5% aqueous carboxymethyl cellulose solution to 10 mg/mL and was used as a test drug. Stillen (artemisia extract, Dong-A Pharmaceutical) and Mucosta (rebamipide, Korea Otsuka Pharmaceuticals) dissolved in 0.5% aqueous carboxymethyl cellulose solution to 10 mg/mL were used as control drugs.
as §1, with “available. The Momordicae semen extract” for “available. Momordica saponin I were administered at a dosage of 20 mg/kg”, “control drugs Stillen and” for “control drug”, “After 1 hour,” for “After 30 minutes,”, “administered. 6” for “administered. 3”, “was categorized” for “was classified”, “to 3.” for “to 3 (the higher the point, the severer the damage.).”

SMILES | gastric mucosa damage index ± standard deviation: Total [2] | gastric mucosa damage index ± standard deviation: Bleeding [2] | gastric mucosa damage index ± standard deviation: Edema [2] | gastric mucosa damage index ± standard deviation: Erosion [2] | gastric mucosa damage index ± standard deviation: Flare [2] | gastric mucosa damage index ± standard deviation: Hyperemia [2] | gastric mucosa damage index ± standard deviation: Total [3] | gastric mucosa damage index ± standard deviation: Bleeding [3] | gastric mucosa damage index ± standard deviation: Edema [3] | gastric mucosa damage index ± standard deviation: Flare [3] | gastric mucosa damage index ± standard deviation: Hyperemia [3] | gastric mucosa damage index ± standard deviation: Erosion [4] | further results
CC1OC(OC2C(O)C(C(=O)O)OC(OC3CCC4(C)C(CCC5(C)C4CC=C4C6CC(C)(C)CCC6(C(=O)OC6OC(C)C(O)C(O)C6OC6OC(C)C(OC7OCC(O)C(O)C7O)C(OC7OC(CO)C(O)C(OC8OCC(O)C(O)C8O)C7O)C6O)CCC45C)C3(C)C=O)C2OC2OC(CO)C(O)C(O)C2O)C(O)C(O)C1O [Momordica saponin I, 3-O-β-D-galactopyranosyl(1->2)-[α-L-rhamnopyranosyl(1->3)]-β-D-glucuronopyranosido-28-O-β-D-xylopyranosyl(1->3)-β-D-glucopyranosyl(1->3)-[β-D-xylopyranosyl(1->4)]-α-L-rhamnopyranosyl(1->2)-β-D-fucopyranosylgypsogenin] | 4.4 ± 1.1 | 0.9 ± 0.2 | 1 ± 0.3 | 0.5 ± 0.1 | 1.1 ± 0.2 | 0.9 ± 0.3 | 5.2 ± 1.2 | 0.7 ± 0.2 | 1 ± 0.2 | 1.3 ± 0.2 | 0.9 ± 0.3 | 1.3 ± 0.3 | Acidity in the stomach of rats (pH ± standard deviation) ([1]; 5 mg/kg oral): 3.3 ± 0.1 pH; Acidity in the stomach of rats (pH ± standard deviation) ([1]; 15 mg/kg oral): 4.3 ± 0.8 pH; Acidity in the stomach of rats (pH ± standard deviation) ([1]; 45 mg/kg oral): 5.2 ± 0.6 pH; clinical manifestation or death ([5]; once at a dosage of 400 mg/kg): no noticeable clinical manifestation or death; toxicity in body weight change, hematological and serum biochemical analysis and autopsy ([5]; once at a dosage of 400 mg/kg): no toxicity was found; minimum oral administration lethal dose (LD50) ([5]; single administration): ≥ 400 mg/kg
O=C(NC(Cc1cc(=O)[nH]c2ccccc12)C(=O)O)c1ccc(Cl)cc1 (stereo not drawn) [Mucosta, rebamipide] | 6.1 ± 1.2 | 1.4 ± 0.2 | 1.2 ± 0.3 | 0.9 ± 0.3 | 1.2 ± 0.2 | 1.4 ± 0.2 | 8.5 ± 1.5 | 1.5 ± 0.3 | 1.2 ± 0.1 | 2.3 ± 0.3 | 1.3 ± 0.4 | 2.2 ± 0.4 | gastric mucosa damage index: Total [6]: 7.4 ± 0.7; gastric mucosa damage index: Bleeding ([6]; points 0 to 3): 1.2 ± 0.2; gastric mucosa damage index: Edema ([6]; points 0 to 3): 2.2 ± 0.2; gastric mucosa damage index: Erosion ([6]; points 0 to 3): 2.4 ± 0.2; gastric mucosa damage index: Flare ([6]; points 0 to 3): 0.8 ± 0.4; gastric mucosa damage index: Hyperemia ([6]; points 0 to 3): 0.8 ± 0.4; gastric mucosa damage index: Total [7]: 9.8 ± 1.2; gastric mucosa damage index: Bleeding ([7]; points 0 to 3): 1.4 ± 0.5; gastric mucosa damage index: Edema ([7]; points 0 to 3): 1.2 ± 0.2; gastric mucosa damage index: Erosion ([7]; points 0 to 3): 2.4 ± 0.4; gastric mucosa damage index: Flare ([7]; points 0 to 3): 2.6 ± 0.2; gastric mucosa damage index: Hyperemia ([7]; points 0 to 3): 2.2 ± 0.4; gastric mucosa damage index: Total [8]: 8.1 ± 0.8; gastric mucosa damage index: Bleeding ([8]; points 0 to 3): 1.5 ± 0.2; gastric mucosa damage index: Edema ([8]; points 0 to 3): 1.3 ± 0.2; gastric mucosa damage index: Erosion ([8]; points 0 to 3): 1.8 ± 0.2; gastric mucosa damage index: Flare ([8]; points 0 to 3): 1.3 ± 0.2; gastric mucosa damage index: Hyperemia ([8]; points 0 to 3): 1.3 ± 0.4
